This note sets out measurements from ChEMBL document CHEMBL1201862, “PubChem BioAssay data set” (2004).

SMILES strings stand for the structures.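 Tested at 5 concentrations; 48 h exposure; 96-well plates; endpoints linearly interpolated, else capped at highest concentration. Here, GI50 denotes the concentration required for 50% inhibition of growth.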 Active and inactive are the calls of the source. Cut-off read from the data, not from the text of the source: active = GI50 up to about 1.1 µM and inactive = higher.

Test systems include KM12; NCI-H522; SNB-19; OVCAR-8; NCI-H226; IGROV-1; K562; UACC-62; SK-OV-3; A549; U-251; SW-620; NCI-H23; SF-268; LOX IMVI; EKVX; SK-MEL-2; SK-MEL-5; SK-MEL-28; SF-295.
What all share (assay): NCI tumour cell line growth inhibition, 48 h

As for `CN(CCO)Cc1ncccc1O`, the GI50 with KM12, with NCI-H522, in the assay with SNB-19, with OVCAR-8, in the assay on NCI-H226 and in the assay on IGROV-1 was > 100 µM (inactive) each time. For the same compound, the GI50 in the assay on K562 is 0.495 µM (active); in the assay on UACC-62, > 100 µM (inactive); in the assay with SK-OV-3, > 100 µM (inactive); in the assay on A549, > 100 µM (inactive); in the assay with U-251, > 100 µM (inactive); in the assay with SW-620, > 100 µM (inactive). The GI50 with NCI-H23, in the assay with SF-268, with LOX IMVI, in the assay with EKVX, in the assay on SK-MEL-2 and in the assay on SK-MEL-5 was > 100 µM (inactive) each time. Also, the GI50 in the assay with SK-MEL-28 and in the assay with SF-295 was > 100 µM (inactive) throughout.
Turning to `CON(C)C(C#N)=C(C#N)C#N`, the GI50 in the assay with KM12 is > 10 µM (inactive); in the assay with NCI-H522, > 10 µM (inactive); in the assay on SNB-19, > 10 µM (inactive); in the assay on OVCAR-8, > 10 µM (inactive); with NCI-H226, 2.86 µM (inactive); in the assay on IGROV-1, > 10 µM (inactive). The GI50 with K562, in the assay with UACC-62, in the assay with SK-OV-3, in the assay on A549, with U-251 and in the assay with SW-620 was > 10 µM (inactive) in each case. The GI50 with NCI-H23, in the assay on SF-268, in the assay on LOX IMVI, in the assay with EKVX, in the assay with SK-MEL-2 and in the assay on SK-MEL-5 was > 10 µM (inactive) each time. For the same compound, the GI50 with SK-MEL-28 and in the assay on SF-295 was > 10 µM (inactive) throughout.
As to `C#CC(C)(C)OCCCCOc1cc(O)c2c(=O)c3ccccc3n(C)c2c1`, the GI50 is 97.9 µM (inactive) in the assay with KM12; > 100 µM (inactive) in the assay on NCI-H522; > 100 µM (inactive) in the assay with SNB-19; > 100 µM (inactive) with OVCAR-8; > 100 µM (inactive) in the assay on NCI-H226; > 100 µM (inactive) in the assay with IGROV-1. Besides, the GI50 in the assay with K562, in the assay with UACC-62, in the assay with SK-OV-3, in the assay on A549, in the assay on U-251 and with SW-620 was > 100 µM (inactive) each time. Also, the GI50 in the assay on NCI-H23 is > 100 µM (inactive); with SF-268, > 100 µM (inactive); in the assay with LOX IMVI, > 100 µM (inactive); in the assay on EKVX it was > 100 µM (inactive); in the assay with SK-MEL-2 it was > 100 µM (inactive); in the assay with SK-MEL-5, 66.5 µM (inactive). Also, the GI50 with SK-MEL-28 and in the assay on SF-295 was > 100 µM (inactive) in each case.
In the case of `C=CCCN1CCc2c([nH]c3ccccc23)C1C(=O)O` (centres undefined), the GI50 with KM12 is > 100 µM (inactive); in the assay with NCI-H522, > 100 µM (inactive); in the assay on SNB-19, > 100 µM (inactive); with NCI-H226, 89.7 µM (inactive); in the assay on IGROV-1 it was > 100 µM (inactive); with K562, > 100 µM (inactive). In addition, the GI50 in the assay on UACC-62 was > 100 µM (inactive); in the assay on SK-OV-3, > 100 µM (inactive); with A549, > 100 µM (inactive); in the assay with U-251 it was > 100 µM (inactive); in the assay on SW-620 it was > 100 µM (inactive); in the assay on NCI-H23 it was 78 µM (inactive). Further, the GI50 in the assay on SF-268 is 78.3 µM (inactive); in the assay on LOX IMVI, > 100 µM (inactive); in the assay with EKVX it was > 100 µM (inactive); with SK-MEL-2, > 100 µM (inactive); with SK-MEL-5, > 100 µM (inactive); in the assay with SK-MEL-28, > 100 µM (inactive). In addition, the GI50 in the assay on SF-295 is > 100 µM (inactive).
On to `CC(=O)NNc1nc(C)c(C(=O)NNC(=O)C(=O)Nc2ccc([N+](=O)[O-])cc2C#N)s1`, for which the GI50 in the assay on KM12 is > 100 µM (inactive); in the assay on NCI-H522, 76 µM (inactive); with SNB-19, > 100 µM (inactive); with OVCAR-8 it was > 100 µM (inactive); with NCI-H226 it was > 100 µM (inactive); in the assay on IGROV-1, > 100 µM (inactive). Also, the GI50 with K562 was 38.1 µM (inactive); with UACC-62, > 100 µM (inactive); in the assay on SK-OV-3, > 100 µM (inactive); with A549, > 100 µM (inactive); with U-251 it was 52.7 µM (inactive); in the assay on SW-620, 55.1 µM (inactive). The GI50 with NCI-H23 is 96.4 µM (inactive); in the assay on SF-268 it was 52.2 µM (inactive); in the assay on LOX IMVI, 52.7 µM (inactive); in the assay on EKVX, 96.4 µM (inactive); in the assay with SK-MEL-2, > 100 µM (inactive); in the assay with SK-MEL-5, > 100 µM (inactive). In addition, the results for the GI50 in the assay with SK-MEL-28 and in the assay with SF-295 were > 100 µM (inactive) and > 10 µM (inactive), respectively.
Take `CC1NC(=O)C(C)C(c2ccccc2)N(N=O)C1c1ccccc1` (centres undefined): the GI50 was 74.1 µM (inactive) in the assay on KM12; 88.9 µM (inactive) with NCI-H522; > 76.9 µM (inactive) in the assay on SNB-19; > 100 µM (inactive) in the assay on OVCAR-8; > 100 µM (inactive) with NCI-H226; > 81.5 µM (inactive) with IGROV-1. Moreover, the GI50 in the assay on K562 is 33 µM (inactive); with UACC-62, > 88.5 µM (inactive); with SK-OV-3 it was 28.2 µM (inactive); in the assay on A549, > 100 µM (inactive); in the assay on U-251, > 100 µM (inactive); in the assay on SW-620, > 100 µM (inactive). The GI50 was > 100 µM (inactive) in the assay with NCI-H23; > 100 µM (inactive) in the assay with SF-268; > 69.5 µM (inactive) in the assay with LOX IMVI; > 83 µM (inactive) in the assay on EKVX; > 100 µM (inactive) in the assay on SK-MEL-2; > 71.3 µM (inactive) in the assay on SK-MEL-5. Also, the GI50 in the assay with SK-MEL-28 was > 100 µM (inactive); in the assay on SF-295 it was > 34.7 µM (inactive).
With `CC(=O)OCc1c(C)c2ccccc2n1C(C)=O`, the GI50 in the assay with KM12 is 40.5 µM (inactive); in the assay on NCI-H522, 20 µM (inactive); with SNB-19, > 100 µM (inactive); in the assay with OVCAR-8 it was 49 µM (inactive); in the assay on NCI-H226 it was 87.5 µM (inactive); in the assay with IGROV-1 it was 36.8 µM (inactive). Further, the GI50 was 23.7 µM (inactive) in the assay with K562; 36.3 µM (inactive) in the assay on UACC-62; 81.3 µM (inactive) in the assay on SK-OV-3; 53 µM (inactive) in the assay with A549; 36.3 µM (inactive) in the assay on U-251; 47 µM (inactive) in the assay on SW-620. In addition, the GI50 was 55 µM (inactive) with NCI-H23; 43.6 µM (inactive) in the assay on SF-268; 45 µM (inactive) in the assay with LOX IMVI; > 100 µM (inactive) with EKVX; 21 µM (inactive) in the assay with SK-MEL-2; 35.2 µM (inactive) with SK-MEL-5. The GI50 in the assay on SK-MEL-28 was > 100 µM (inactive); in the assay with SF-295, 56.9 µM (inactive).
Consider `CC1=C2C3OC(=O)C(C)C3CCC2(C)C=C/C1=N\c1ccccc1` (centres undefined), for which the GI50 with KM12, in the assay on NCI-H522, in the assay on SNB-19, with OVCAR-8, in the assay on NCI-H226 and in the assay with IGROV-1 was > 100 µM (inactive) each time. Besides, the GI50 in the assay on K562, in the assay on UACC-62, in the assay on SK-OV-3, in the assay with A549, with U-251 and in the assay with SW-620 was > 100 µM (inactive) throughout. In addition, the GI50 with NCI-H23, in the assay with SF-268, in the assay with LOX IMVI, with EKVX, in the assay with SK-MEL-2 and with SK-MEL-5 was > 100 µM (inactive) each time. The GI50 with SK-MEL-28 and in the assay with SF-295 was > 100 µM (inactive) each time.
`O=C(/C=C/c1ccc(OCc2ccccc2)cc1)NCc1ccc(C(=O)NCc2ccccc2)cc1`: the GI50 in the assay with KM12, with NCI-H522, in the assay with SNB-19, with OVCAR-8, with NCI-H226 and in the assay on IGROV-1 was > 100 µM (inactive) in each case. Also, the GI50 in the assay on K562, with UACC-62, with SK-OV-3, with A549, with U-251 and with SW-620 was > 100 µM (inactive) each time. Besides, the GI50 in the assay on NCI-H23, in the assay with SF-268, in the assay on LOX IMVI, in the assay with EKVX, with SK-MEL-2 and in the assay on SK-MEL-5 was > 100 µM (inactive) each time. In addition, the GI50 in the assay with SK-MEL-28 and in the assay with SF-295 was > 100 µM (inactive) in each case.
As to `O=C1C=CC(=O)c2c(Cl)ccc(O)c21`, the GI50 in the assay with KM12 is 52.7 µM (inactive); in the assay on NCI-H522 it was 13.9 µM (inactive); in the assay with SNB-19, > 100 µM (inactive); in the assay on OVCAR-8, 20.4 µM (inactive); with NCI-H226, > 91.2 µM (inactive); with IGROV-1 it was 14.6 µM (inactive). In addition, the GI50 in the assay with K562 was 3.48 µM (inactive); in the assay with UACC-62, 16.8 µM (inactive); in the assay with SK-OV-3, > 100 µM (inactive); in the assay on A549, > 81.8 µM (inactive); in the assay with U-251, > 57 µM (inactive); with SW-620, 11.6 µM (inactive). The GI50 is 12.4 µM (inactive) in the assay with NCI-H23; 18.4 µM (inactive) with SF-268; 18.2 µM (inactive) with LOX IMVI; 21.8 µM (inactive) in the assay on EKVX; 37.8 µM (inactive) in the assay on SK-MEL-2; 17.7 µM (inactive) with SK-MEL-5. The GI50 is 18.8 µM (inactive) in the assay on SK-MEL-28 and > 42.3 µM (inactive) in the assay on SF-295.
